Values of other authors in patent publication US20110027361A1, “EXTENDED RELEASE DOSAGE FORM OF PALIPERIDONE” (TORRENT PHARMACEUTICALS LTD., priority 2008, published 2011).

Experiments:
[1] = in vivo

solubility in 0.1N HCl (0.1N HCl): sparingly soluble
solubility in methylene chloride (methylene chloride): sparingly soluble
solubility in water (water): practically insoluble
terminal elimination half-life [1]: approximately 23 hours
SMILES: Cc1nc2n(c(=O)c1CCN1CCC(c3noc4cc(F)ccc34)CC1)CCCC2O (stereo not shown) [Paliperidone]
